ChEMBL document CHEMBL1201862, “PubChem BioAssay data set” (2004)
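Tested at 5 concentrations; 48 h exposure; 96-well plates; endpoints linearly interpolated, else capped at highest concentration. GI50: concentration for 50% inhibition of growth.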 Active and inactive are the calls of the source. Rule as the data show it: active = GI50 up to about 1.1 µM and inactive = higher.

Key:
Assay in all cases: NCI anticancer screen, dose series, 48 h
NCI-H23 = test system: NCI-H23
SF-295 = test system: SF-295
SR = test system: SR
Hs-578T = test system: Hs-578T
M14 = test system: M14
IGROV-1 = test system: IGROV-1
SF-268 = test system: SF-268
BT-549 = test system: BT-549
SNB-75 = test system: SNB-75
UACC-257 = test system: UACC-257
HCC 2998 = test system: HCC 2998
Malme-3M = test system: Malme-3M
PC-3 = test system: PC-3
UO-31 = test system: UO-31
SF-539 = test system: SF-539
T47D = test system: T47D
RXF 393 = test system: RXF 393
CCRF-CEM = test system: CCRF-CEM
SW-620 = test system: SW-620
LOX IMVI = test system: LOX IMVI

Structure (SMILES)	GI50 (NCI-H23)	GI50 (SF-295)	GI50 (SR)	GI50 (Hs-578T)	GI50 (M14)	GI50 (IGROV-1)	GI50 (SF-268)	GI50 (BT-549)	GI50 (SNB-75)	GI50 (UACC-257)	GI50 (HCC 2998)	GI50 (Malme-3M)	GI50 (PC-3)	GI50 (UO-31)	GI50 (SF-539)	GI50 (T47D)	GI50 (RXF 393)	GI50 (CCRF-CEM)	GI50 (SW-620)	GI50 (LOX IMVI)
C=C1c2nc3ccccc3n2C=C(c2ccc(C)cc2)N1c1ccccc1	4.02 µM (inactive)	1.88 µM (inactive)	0.445 µM (active)	4.21 µM (inactive)	3.12 µM (inactive)	3.33 µM (inactive)	12.9 µM (inactive)	7.78 µM (inactive)	2.08 µM (inactive)	7.93 µM (inactive)	2.26 µM (inactive)	2.62 µM (inactive)	2.75 µM (inactive)	9.62 µM (inactive)	2.44 µM (inactive)	3.24 µM (inactive)	3.36 µM (inactive)	3.3 µM (inactive)	1.67 µM (inactive)	5.24 µM (inactive)
COC(=O)C(CCCCN)NC(=O)C(CCCCN)NC(C)=O.Cc1ccc(C(=O)Nc2ccc(S(=O)(=O)O)c3cc(S(=O)(=O)O)cc(S(=O)(=O)O)c23)cc1NC(=O)c1cccc(NC(=O)Nc2cccc(C(=O)Nc3cc(C(=O)Nc4ccc(S(=O)(=O)O)c5cc(S(=O)(=O)O)cc(S(=O)(=O)O)c45)ccc3C)c2)c1	> 50 µM (inactive)	> 50 µM (inactive)	> 50 µM (inactive)	39.1 µM (inactive)	10.6 µM (inactive)	> 50 µM (inactive)	> 50 µM (inactive)	> 50 µM (inactive)	7.59 µM (inactive)	> 50 µM (inactive)	> 50 µM (inactive)	> 50 µM (inactive)	> 50 µM (inactive)	> 50 µM (inactive)	> 50 µM (inactive)	> 50 µM (inactive)	> 50 µM (inactive)	> 50 µM (inactive)	> 50 µM (inactive)	> 50 µM (inactive)
O=[N+]([O-])c1cccc2nc3ccccc3c(NCCO)c12	0.00194 µM (active)	0.00467 µM (active)	2.36e-05 µM (active)	0.00684 µM (active)	0.000243 µM (active)	0.00269 µM (active)	0.00326 µM (active)	0.00514 µM (active)	0.00164 µM (active)	0.00421 µM (active)	0.00166 µM (active)	0.00331 µM (active)	0.00378 µM (active)	0.00244 µM (active)	0.00262 µM (active)	0.000611 µM (active)	0.00169 µM (active)	0.00989 µM (active)	0.00118 µM (active)	0.00418 µM (active)
N#Cc1c(O)c(/N=N/c2ccc(Cl)cc2)c(=O)n2c1[nH]c1ccccc12	46 µM (inactive)	36.9 µM (inactive)	29.9 µM (inactive)	52.1 µM (inactive)	36 µM (inactive)	73.1 µM (inactive)	45 µM (inactive)	34.6 µM (inactive)	37.7 µM (inactive)	52.1 µM (inactive)	41.5 µM (inactive)	40.6 µM (inactive)	36.2 µM (inactive)	49.9 µM (inactive)	53.8 µM (inactive)	27.1 µM (inactive)	53.8 µM (inactive)	31.2 µM (inactive)	63.2 µM (inactive)	> 100 µM (inactive)
O=C(Nc1ccc(Cl)cc1)c1cc(S(=O)(=O)NC2=Nc3ccc(Cl)cc3C(c3ccccc3)N2)c(SSc2cc(Cl)c(C(=O)Nc3ccc(Cl)cc3)cc2S(=O)(=O)NC2=Nc3ccc(Cl)cc3C(c3ccccc3)N2)cc1Cl (stereo not given)	> 100 µM (inactive)	> 100 µM (inactive)	16.5 µM (inactive)	> 100 µM (inactive)	46.1 µM (inactive)	> 100 µM (inactive)	> 100 µM (inactive)	> 100 µM (inactive)	> 100 µM (inactive)	> 100 µM (inactive)	> 100 µM (inactive)	> 100 µM (inactive)	> 100 µM (inactive)	> 100 µM (inactive)	> 100 µM (inactive)	> 100 µM (inactive)	> 100 µM (inactive)	17.1 µM (inactive)	> 100 µM (inactive)	> 100 µM (inactive)
COc1cc(-c2cc(=O)c3cc4c(=O)cc(-c5cc(OC)c(OC)c(OC)c5)oc4cc3o2)cc(OC)c1OC	25.8 µM (inactive)	17.5 µM (inactive)	> 100 µM (inactive)	20.1 µM (inactive)	60.3 µM (inactive)	22.7 µM (inactive)	23.5 µM (inactive)	17.5 µM (inactive)	13.5 µM (inactive)	> 83.6 µM (inactive)	> 100 µM (inactive)	43.2 µM (inactive)	> 100 µM (inactive)	> 100 µM (inactive)	58.3 µM (inactive)	> 54.8 µM (inactive)	7.98 µM (inactive)	> 100 µM (inactive)	> 100 µM (inactive)	36.1 µM (inactive)
COc1c(O)c(O)cc2c1-c1ccc(OC)c(=O)cc1C(NC(C)=O)CC2 (stereo not given)	3.95 µM (inactive)	5.13 µM (inactive)	3.24 µM (inactive)	2.66 µM (inactive)	3.78 µM (inactive)	5.26 µM (inactive)	5.52 µM (inactive)	2.22 µM (inactive)	4.24 µM (inactive)	7.26 µM (inactive)	5.38 µM (inactive)	5.7 µM (inactive)	6.62 µM (inactive)	56.1 µM (inactive)	2.81 µM (inactive)	> 100 µM (inactive)	2.84 µM (inactive)	3.72 µM (inactive)	4.41 µM (inactive)	4.84 µM (inactive)
COC(=O)C1(C)CCc2c(ccc3ccccc23)C1=O (stereo not given)	51.6 µM (inactive)	39.7 µM (inactive)	39.4 µM (inactive)	47.2 µM (inactive)	29.9 µM (inactive)	26.5 µM (inactive)	32.1 µM (inactive)	27.1 µM (inactive)	44.8 µM (inactive)	24.5 µM (inactive)	36.1 µM (inactive)	27.8 µM (inactive)	40.9 µM (inactive)	33.3 µM (inactive)	86.7 µM (inactive)	24.5 µM (inactive)	25 µM (inactive)	37.3 µM (inactive)	39 µM (inactive)	36.1 µM (inactive)
CCOc1cc(NC(C)=O)ccc1C(=O)NN1C(=O)C(Cl)C1c1ccccc1 (stereo not given)	14.3 µM (inactive)	20.4 µM (inactive)	4.34 µM (inactive)	21.2 µM (inactive)	12.4 µM (inactive)	3.92 µM (inactive)	16.7 µM (inactive)	11.4 µM (inactive)	15.6 µM (inactive)	11.9 µM (inactive)	17.4 µM (inactive)	11.2 µM (inactive)	14 µM (inactive)	3.31 µM (inactive)	10.9 µM (inactive)	12.5 µM (inactive)	13.6 µM (inactive)	2.67 µM (inactive)	12.4 µM (inactive)	1.37 µM (inactive)
O=C(CCSC1=NCCCN1)c1ccc(F)cc1	19.4 µM (inactive)	37.8 µM (inactive)	3.3 µM (inactive)	22 µM (inactive)	15.6 µM (inactive)	18 µM (inactive)	22.9 µM (inactive)	18.2 µM (inactive)	19 µM (inactive)	18.8 µM (inactive)	18.6 µM (inactive)	7.26 µM (inactive)	14.9 µM (inactive)	5.83 µM (inactive)	15.7 µM (inactive)	21.9 µM (inactive)	17.2 µM (inactive)	2.61 µM (inactive)	2.86 µM (inactive)	18.9 µM (inactive)
C=CC[C@]1(C2=NC(C)(C)CO2)c2ccccc2-c2ccccc2[C@H]1C(C)=O	12.7 µM (inactive)	4.61 µM (inactive)	3.27 µM (inactive)	6.5 µM (inactive)	7.76 µM (inactive)	8.38 µM (inactive)	10 µM (inactive)	16 µM (inactive)	10.9 µM (inactive)	6.05 µM (inactive)	8.11 µM (inactive)	5.57 µM (inactive)	6.41 µM (inactive)	14.1 µM (inactive)	10.8 µM (inactive)	13 µM (inactive)	3.68 µM (inactive)	7.1 µM (inactive)	7.55 µM (inactive)	10.6 µM (inactive)
Cc1ccc(/N=N/c2c(C)nn(C(=O)CC(=O)Nc3ccc(Cl)cc3)c2C)cc1C	> 100 µM (inactive)	48.3 µM (inactive)	18.8 µM (inactive)	7.05 µM (inactive)	> 100 µM (inactive)	37.2 µM (inactive)	37.2 µM (inactive)	> 100 µM (inactive)	21 µM (inactive)	> 100 µM (inactive)	> 100 µM (inactive)	85.5 µM (inactive)	> 100 µM (inactive)	37.5 µM (inactive)	26 µM (inactive)	> 100 µM (inactive)	20.7 µM (inactive)	29.1 µM (inactive)	> 100 µM (inactive)	96.8 µM (inactive)
COCC(=O)OC1CCn2c1nc1c2C(=O)C(C)=C(NC(C)=O)C1=N (stereo not given)	4.34 µM (inactive)	16.1 µM (inactive)	2.64 µM (inactive)	4.1 µM (inactive)	4.95 µM (inactive)	10.8 µM (inactive)	5.19 µM (inactive)	0.993 µM (active)	15.3 µM (inactive)	2.43 µM (inactive)	13.7 µM (inactive)	1.38 µM (inactive)	2.58 µM (inactive)	11.6 µM (inactive)	2.07 µM (inactive)	1.95 µM (inactive)	2.16 µM (inactive)	2.1 µM (inactive)	2.49 µM (inactive)	2.53 µM (inactive)
